From patent US8114425B2, “Process for the production of wood-based materials” (LANXESS Deutschland GmbH, priority 2008, dated 2012)

Key:
[1] = Investigation of the thermal lability of thiacloprid in NaOH solution; type: physicochemical; settings: NaOH solution pH 13.7
Protocol: 5 g of NaOH were dissolved in 250 ml of distilled water (pH 13.7) and 100 mg of active substance were added. Stirring was then effected for 15 min at different temperatures. The mixture was extracted twice with methylene chloride, neutralized and evaporated down. The residue was weighed and was analysed by NMR, GC, GC-MS or HPLC.

[2] = test system: Reticulitermes santonensis; assay: Termite resistance compulsory test analogous to EN 117 on OSB boards; type: in vivo; settings: OSB board with 0.00153% thiacloprid, PF glue outer layers, pressed at 190-200° C.; inspection of the surfaces after 8 weeks
Excerpt: Pine chips (strands for the production of OSB) whose fine fraction of <6 mm was removed by means of screening were wetted with phenol-formaldehyde glue (PF, manufacturer Georgia Pacific; type GP 155 C 42; pH about 11-13) for the outer layers and with polymethylene diisocyanate glue (PMDI; manufacturer Bayer; type Desmodur 1520 A 20) for the middle layer. The outer and middle layer chips treated in each case were then wetted with an aqueous solution containing 0.5% of thiacloprid and finally in each case with a wax emulsion (Sasolwax Hydrowax 730). The application was effected in each case using an atomizer (spinning disc system) in a chip mixer. The amount of alkaline binder was 4.5% of PF (or 2.5% of PMDI) solid resin mass fraction in the finished OSB board. This corresponds to about 10% mass fraction, based on the chips used, for the PF glue. The aqueous solution containing thiacloprid was used with 2000 ml/m^3 of finished OSB board. At a density of 650 kg/m^3, this corresponds to 0.00153% of thiacloprid, based on the finished OSB board. The proportion of wax was 0.8% by mass, based on the OSB board. The OSB wood composites produced were produced from 60% of PF glue-coated chips as outer layers and 40% of PMDI glue-coated chips as the middle layer in a press at 500 N/cm^2 and with press plate temperatures of 190-200° C. […]

Q: What does the source list for `N#C/N=C1\SCCN1Cc1ccc(Cl)nc1` [thiacloprid]?
A: stability in NaOH solution ([1]; 35° C., 15 min stirring): stable; degradation in NaOH solution ([1]; 75° C., 15 min stirring): 100%; degradation in NaOH solution (in words) ([1]; 75° C., after only 15 min): completely degraded; traces of feeding on test specimen surfaces [2]: No measurable traces of feeding
